In patent US11753395B2 (Kinnate Biopharma Inc., priority 2021, dated 2023):

Legend:
MET D1228N = biological target: T1, MET D1228N (Homo sapiens, UniProt P08581, D1228N); assay: MET D1228N Mobility Shift Assay; settings: biochemical assay IC50; 100 μM ATP, 60 minute kinase reaction
T1 construct: purchased Signalchem M52-12IG
Outline: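 Microfluidic electrophoresis quantified phosphorylated versus unphosphorylated 5-FAM-KKKKEEIYFFF peptide (1.5 μM) after a 60 min reaction with 100 μM ATP. MET D1228N (0.313 nM) in 50 mM HEPES, 10 mM MgCl2, 2 mM DTT was preincubated 30 min; IC50 fitted to conversion inhibition.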

[1] = biological target: T2, Ba/F3-TPR-MET-D1228N cells (Homo sapiens, UniProt P08581, D1228N, cells depend on it); assay: CellTiter-Glo Cell Viability Assay, Ba/F3-TPR-MET-D1228N; format: cell-based; settings: 72 hours
T2 construct: fused on or other part: P12270 (Nucleoprotein TPR)
Outline: (§1)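 IC50 values come from curve-fitted luminescence. Viable-cell ATP was read by CellTiter-Glo 2.0 after a 72 h, 37 °C incubation of 3000 TPR-MET or D1228N-mutant Ba/F3 cells per well. Compounds were tested as a 9-point, 3-fold series with 0.1% DMSO final.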

MET = biological target: T3, MET (Homo sapiens, UniProt P08581); assay: MET Mobility Shift Assay; settings: biochemical assay IC50; 100 μM ATP, 60 minute kinase reaction
T3 construct: purchased Carna Biosciences 08-151
T3 sequence (P08581 25-1390): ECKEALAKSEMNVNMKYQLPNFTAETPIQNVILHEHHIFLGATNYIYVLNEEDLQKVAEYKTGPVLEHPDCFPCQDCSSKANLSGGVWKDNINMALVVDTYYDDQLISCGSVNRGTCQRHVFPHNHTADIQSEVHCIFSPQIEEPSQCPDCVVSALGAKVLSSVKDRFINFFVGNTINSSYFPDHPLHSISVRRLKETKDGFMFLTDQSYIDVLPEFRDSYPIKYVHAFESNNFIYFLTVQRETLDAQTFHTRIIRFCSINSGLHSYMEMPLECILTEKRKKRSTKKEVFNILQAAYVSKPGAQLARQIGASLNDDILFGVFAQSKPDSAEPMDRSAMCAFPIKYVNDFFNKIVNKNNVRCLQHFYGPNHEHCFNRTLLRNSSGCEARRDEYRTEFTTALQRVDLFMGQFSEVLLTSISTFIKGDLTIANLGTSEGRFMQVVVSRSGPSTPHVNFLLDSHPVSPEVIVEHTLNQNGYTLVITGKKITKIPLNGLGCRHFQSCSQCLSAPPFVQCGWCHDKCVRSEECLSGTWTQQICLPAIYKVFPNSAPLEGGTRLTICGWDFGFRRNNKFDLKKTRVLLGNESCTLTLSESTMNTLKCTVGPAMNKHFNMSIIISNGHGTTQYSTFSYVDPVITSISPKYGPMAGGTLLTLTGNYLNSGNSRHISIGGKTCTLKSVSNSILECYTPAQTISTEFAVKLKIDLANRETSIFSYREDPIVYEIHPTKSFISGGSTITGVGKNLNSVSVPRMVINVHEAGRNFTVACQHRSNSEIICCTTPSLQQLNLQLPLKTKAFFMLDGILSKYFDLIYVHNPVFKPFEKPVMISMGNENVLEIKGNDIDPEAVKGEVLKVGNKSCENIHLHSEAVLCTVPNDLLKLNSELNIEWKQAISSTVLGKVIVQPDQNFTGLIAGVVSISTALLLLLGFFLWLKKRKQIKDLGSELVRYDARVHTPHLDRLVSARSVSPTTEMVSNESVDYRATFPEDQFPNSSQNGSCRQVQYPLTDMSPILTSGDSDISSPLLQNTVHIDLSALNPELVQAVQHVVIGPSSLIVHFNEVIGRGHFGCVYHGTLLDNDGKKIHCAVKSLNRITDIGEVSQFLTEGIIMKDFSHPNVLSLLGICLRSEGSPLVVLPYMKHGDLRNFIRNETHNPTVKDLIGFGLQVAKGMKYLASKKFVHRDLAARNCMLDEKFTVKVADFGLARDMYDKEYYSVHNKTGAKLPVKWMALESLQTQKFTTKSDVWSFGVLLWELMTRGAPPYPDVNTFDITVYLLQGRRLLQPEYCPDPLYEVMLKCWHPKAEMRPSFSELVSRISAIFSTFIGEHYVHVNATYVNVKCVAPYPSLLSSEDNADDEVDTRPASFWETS
Outline: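 IC50s come from inhibition of substrate-to-phosphopeptide conversion, read by electrophoretic mobility shift. Reaction: 100 μM ATP, 1.5 μM 5-FAM peptide, 0.625 nM MET, 10 mM MgCl2, 60 min, after a 30 min room-temperature enzyme pre-incubation, quenched with EDTA.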

Ba/F3-TPR-MET cells = biological target: T4, Ba/F3-TPR-MET cells (Homo sapiens, UniProt P08581); assay: CellTiter-Glo Cell Viability Assay, Ba/F3-TPR-MET; format: cell-based; settings: 72 hours
T4 construct: fused on or other part: P12270 (Nucleoprotein TPR)
T4 sequence (P08581 whole entry, change not shown, the tested form may be a part): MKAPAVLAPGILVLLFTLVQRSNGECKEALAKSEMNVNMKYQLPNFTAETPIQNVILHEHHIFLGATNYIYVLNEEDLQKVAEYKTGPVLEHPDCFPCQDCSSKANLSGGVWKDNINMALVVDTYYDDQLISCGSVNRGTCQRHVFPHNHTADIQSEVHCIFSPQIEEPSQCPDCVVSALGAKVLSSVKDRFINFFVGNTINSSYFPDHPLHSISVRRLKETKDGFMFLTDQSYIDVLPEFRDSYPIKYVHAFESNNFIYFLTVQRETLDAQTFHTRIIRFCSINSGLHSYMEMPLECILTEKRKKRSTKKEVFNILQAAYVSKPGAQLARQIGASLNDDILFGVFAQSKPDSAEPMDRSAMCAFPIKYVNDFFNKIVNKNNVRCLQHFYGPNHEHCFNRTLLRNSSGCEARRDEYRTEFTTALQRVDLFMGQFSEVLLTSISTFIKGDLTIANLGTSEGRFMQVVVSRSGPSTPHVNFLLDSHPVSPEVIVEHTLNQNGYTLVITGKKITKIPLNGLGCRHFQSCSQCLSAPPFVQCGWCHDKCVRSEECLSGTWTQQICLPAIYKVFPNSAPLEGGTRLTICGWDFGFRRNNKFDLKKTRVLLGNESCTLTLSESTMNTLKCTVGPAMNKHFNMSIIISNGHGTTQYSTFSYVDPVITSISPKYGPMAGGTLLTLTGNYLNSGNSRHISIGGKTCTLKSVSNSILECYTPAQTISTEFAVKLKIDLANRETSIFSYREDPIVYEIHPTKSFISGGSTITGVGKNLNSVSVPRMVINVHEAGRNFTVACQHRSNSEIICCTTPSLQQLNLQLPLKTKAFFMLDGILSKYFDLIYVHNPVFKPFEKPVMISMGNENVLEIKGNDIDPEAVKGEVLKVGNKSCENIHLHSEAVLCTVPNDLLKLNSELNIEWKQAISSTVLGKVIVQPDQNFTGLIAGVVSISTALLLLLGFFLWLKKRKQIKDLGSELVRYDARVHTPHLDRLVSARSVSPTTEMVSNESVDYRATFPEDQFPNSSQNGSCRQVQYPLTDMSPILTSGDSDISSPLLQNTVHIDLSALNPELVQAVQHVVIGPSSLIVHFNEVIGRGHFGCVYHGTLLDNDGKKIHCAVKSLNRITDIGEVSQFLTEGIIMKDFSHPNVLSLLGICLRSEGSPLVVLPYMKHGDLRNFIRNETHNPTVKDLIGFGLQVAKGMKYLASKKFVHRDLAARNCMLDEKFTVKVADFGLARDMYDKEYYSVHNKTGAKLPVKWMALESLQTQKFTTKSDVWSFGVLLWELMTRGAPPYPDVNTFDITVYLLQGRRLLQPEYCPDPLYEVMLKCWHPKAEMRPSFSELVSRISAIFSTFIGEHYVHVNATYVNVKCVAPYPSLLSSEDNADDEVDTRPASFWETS
Outline: as §1

T1 sequence (P08581 25-1390 D1228N): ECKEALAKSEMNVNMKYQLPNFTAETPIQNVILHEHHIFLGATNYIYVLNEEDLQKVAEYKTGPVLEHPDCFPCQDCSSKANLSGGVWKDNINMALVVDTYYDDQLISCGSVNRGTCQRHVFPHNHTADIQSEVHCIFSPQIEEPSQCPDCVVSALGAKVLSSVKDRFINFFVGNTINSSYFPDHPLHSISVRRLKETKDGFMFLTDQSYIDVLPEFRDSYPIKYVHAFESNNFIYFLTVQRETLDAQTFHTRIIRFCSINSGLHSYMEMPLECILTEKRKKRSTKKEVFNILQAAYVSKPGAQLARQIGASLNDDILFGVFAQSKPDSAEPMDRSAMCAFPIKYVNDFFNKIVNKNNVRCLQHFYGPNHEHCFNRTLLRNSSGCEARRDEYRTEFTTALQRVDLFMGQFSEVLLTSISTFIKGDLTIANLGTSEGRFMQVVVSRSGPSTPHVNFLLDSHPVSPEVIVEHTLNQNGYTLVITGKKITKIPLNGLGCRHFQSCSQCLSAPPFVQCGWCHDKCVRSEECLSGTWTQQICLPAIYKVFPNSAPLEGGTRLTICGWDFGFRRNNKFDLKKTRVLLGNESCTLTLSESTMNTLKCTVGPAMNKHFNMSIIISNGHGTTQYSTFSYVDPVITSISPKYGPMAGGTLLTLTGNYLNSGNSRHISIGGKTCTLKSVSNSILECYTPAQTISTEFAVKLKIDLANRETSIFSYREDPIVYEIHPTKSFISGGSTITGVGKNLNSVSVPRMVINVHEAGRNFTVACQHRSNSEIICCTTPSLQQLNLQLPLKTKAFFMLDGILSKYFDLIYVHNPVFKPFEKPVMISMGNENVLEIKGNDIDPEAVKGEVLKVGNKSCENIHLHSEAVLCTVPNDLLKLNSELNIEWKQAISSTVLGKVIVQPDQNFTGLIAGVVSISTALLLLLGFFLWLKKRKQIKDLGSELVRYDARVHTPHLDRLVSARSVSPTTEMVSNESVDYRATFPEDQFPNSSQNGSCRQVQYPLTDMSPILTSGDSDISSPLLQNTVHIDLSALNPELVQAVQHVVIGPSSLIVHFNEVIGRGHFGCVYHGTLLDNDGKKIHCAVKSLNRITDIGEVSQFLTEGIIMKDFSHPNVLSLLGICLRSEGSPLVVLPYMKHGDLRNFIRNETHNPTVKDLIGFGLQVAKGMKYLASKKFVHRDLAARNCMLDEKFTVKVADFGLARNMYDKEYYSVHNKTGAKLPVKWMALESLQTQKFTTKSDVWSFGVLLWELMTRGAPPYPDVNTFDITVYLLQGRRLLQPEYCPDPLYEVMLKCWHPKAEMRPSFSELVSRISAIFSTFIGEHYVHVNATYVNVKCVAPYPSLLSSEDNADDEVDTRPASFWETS

IC50 (MET D1228N) | IC50 (MET) | SMILES | EC50 [1] | EC50 (Ba/F3-TPR-MET cells)
≤ 100 nM | ≤ 100 nM | COCCOc1ccc2c(Oc3c(F)cc(NC(=O)c4nnccc4OC4CC4)cc3F)ccnc2c1 [Example 120, 4-cyclopropoxy-N-(3,5-difluoro-4-((7-(2-methoxyethoxy)quinolin-4-yl)oxy)phenyl)pyridazine-3-carboxamide] | 100 to 1000 nM | 100 to 1000 nM
≤ 100 nM | ≤ 100 nM | COc1cc2c(Oc3c(F)cc(NC(=O)c4cnccc4OC)cc3F)ccnc2cc1OCCO [Example 121, N-(3,5-difluoro-4-((7-(2-hydroxyethoxy)-6-methoxyquinolin-4-yl)oxy)phenyl)-4-methoxypyridine-3-carboxamide] | ≤ 100 nM | ≤ 100 nM
≤ 100 nM | ≤ 100 nM | COc1cc2nccc(Oc3c(F)cc(NC(=O)c4cnccc4OC)cc3F)c2cc1OCCO [Example 122, N-(3,5-difluoro-4-{[6-(2-hydroxyethoxy)-7-methoxyquinolin-4-yl]oxy}phenyl)-4-methoxypyridine-3-carboxamide] | ≤ 100 nM | ≤ 100 nM
≤ 100 nM | ≤ 100 nM | COc1cc2nccc(Oc3c(F)cc(NC(=O)c4cnccc4OC)cc3F)c2cc1OC[C@H](C)O [Example 123, (S)-N-(3,5-difluoro-4-{[6-(2-hydroxypropoxy)-7-methoxyquinolin-4-yl]oxy}phenyl)-4-methoxypyridine-3-carboxamide] | ≤ 100 nM | ≤ 100 nM
≤ 100 nM | ≤ 100 nM | COc1cc2nccc(Oc3c(F)cc(NC(=O)c4cnccc4OC)cc3F)c2cc1OC[C@@H](C)O [Example 124, (R)-N-(3,5-difluoro-4-{[6-(2-hydroxypropoxy)-7-methoxyquinolin-4-yl]oxy}phenyl)-4-methoxypyridine-3-carboxamide] | ≤ 100 nM | ≤ 100 nM
≤ 100 nM | ≤ 100 nM | COc1cc2nccc(Oc3c(F)cc(NC(=O)c4cnccc4OC)cc3F)c2cc1OCC(C)(C)O [Example 125, N-(3,5-difluoro-4-{[6-(2-hydroxy-2-methylpropoxy)-7-methoxyquinolin-4-yl]oxy}phenyl)-4-methoxypyridine-3-carboxamide] | ≤ 100 nM | ≤ 100 nM
≤ 100 nM | ≤ 100 nM | COc1cc2nccc(Oc3c(F)cc(NC(=O)c4cnccc4OC)cc3F)c2cc1O[C@@H](C)CO [Example 126, (S)-N-(3,5-difluoro-4-{[6-((1-hydroxypropan-2-yl)oxy)-7-methoxyquinolin-4-yl]oxy}phenyl)-4-methoxypyridine-3-carboxamide] | ≤ 100 nM | ≤ 100 nM
≤ 100 nM | ≤ 100 nM | COc1cc2nccc(Oc3c(F)cc(NC(=O)c4ccncc4OC)cc3F)c2cc1O[C@@H](C)CO [Example 127, (S)-N-(3,5-difluoro-4-((6-((1-hydroxypropan-2-yl)oxy)-7-methoxyquinolin-4-yl)oxy)phenyl)-3-methoxyisonicotinamide] | ≤ 100 nM | ≤ 100 nM
≤ 100 nM | ≤ 100 nM | COC[C@H](C)Oc1cc2c(Oc3c(F)cc(NC(=O)c4cnccc4OC)cc3F)ccnc2cc1OC [Example 128, (S)-N-(3,5-difluoro-4-((7-methoxy-6-((1-methoxypropan-2-yl)oxy)quinolin-4-yl)oxy)phenyl)-4-methoxynicotinamide] | ≤ 100 nM | ≤ 100 nM
≤ 100 nM | ≤ 100 nM | COc1cc2nccc(Oc3c(F)cc(NC(=O)c4cnccc4OC4CC4)cc3F)c2cc1O[C@@H](C)CO [Example 129, (S)-4-cyclopropoxy-N-(3,5-difluoro-4-((6-((1-hydroxypropan-2-yl)oxy)-7-methoxyquinolin-4-yl)oxy)phenyl)nicotinamide] | ≤ 100 nM | ≤ 100 nM
≤ 100 nM | ≤ 100 nM | COc1ccncc1C(=O)Nc1cc(F)c(Oc2ccnc3ccc(O[C@@H](C)CO)cc23)c(F)c1 [Example 130, (S)-N-(3,5-difluoro-4-((6-((1-hydroxypropan-2-yl)oxy)quinolin-4-yl)oxy)phenyl) -4-methoxynicotinamide] | ≤ 100 nM | 100 to 1000 nM
≤ 100 nM | ≤ 100 nM | COc1cc2nccc(Oc3c(F)cc(NC(=O)c4cnccc4OC)cc3F)c2cc1O[C@H](C)CO [Example 131, (R)-N-(3,5-difluoro-4-{[6-((1-hydroxypropan-2-yl)oxy)-7-methoxyquinolin-4-yl]oxy}phenyl)-4-methoxypyridine-3-carboxamide] | ≤ 100 nM | ≤ 100 nM
≤ 100 nM | ≤ 100 nM | COc1cc2nccc(Oc3c(F)cc(NC(=O)c4cnccc4OC)cc3F)c2cc1OC1(CO)CC1 [Example 132, N-(3,5-difluoro-4-((6-(1-(hydroxymethyl)cyclopropoxy)-7-methoxyquinolin-4-yl)oxy)phenyl)-4-methoxynicotinamide] | ≤ 100 nM | ≤ 100 nM
≤ 100 nM | ≤ 100 nM | COc1cc2nccc(Oc3c(F)cc(NC(=O)c4cnccc4OC)c(F)c3F)c2cc1O[C@@H](C)CO [Example 133, (S)-4-methoxy-N-(2,3,5-trifluoro-4-((6-((1-hydroxypropan-2-yl)oxy)-7-methoxyquinolin-4-yl)oxy)phenyl)nicotinamide] | ≤ 100 nM | ≤ 100 nM
≤ 100 nM | ≤ 100 nM | COc1cc2c(Oc3c(F)cc(NC(=O)c4ccccc4F)cc3F)ccnc2cc1OCCO [Example 134, N-(3,5-difluoro-4-((7-(2-hydroxyethoxy)-6-methoxyquinolin-4-yl)oxy)phenyl)-2-fluorobenzamide] | ≤ 100 nM | ≤ 100 nM
≤ 100 nM | ≤ 100 nM | COc1cc2c(Oc3c(F)cc(NC(=O)c4cnccc4OCC(F)F)cc3F)ccnc2cc1OCCO [Example 135, N-(3,5-difluoro-4-((7-(2-hydroxyethoxy)-6-methoxyquinolin-4-yl)oxy)phenyl)-4-(2,2-difluoroethoxy)pyridine-3-carboxamide] | ≤ 100 nM | ≤ 100 nM
≤ 100 nM | ≤ 100 nM | COCCOc1cc2nccc(Oc3c(F)cc(NC(=O)c4cnccc4OC4CC4)cc3F)c2nc1OC [Example 136, 4-cyclopropoxy-N-(3,5-difluoro-4-{[6-methoxy-7-(2-methoxyethoxy)-1,5-naphthyridin-4-yl]oxy}phenyl)pyridine-3-carboxamide] | ≤ 100 nM | ≤ 100 nM
≤ 100 nM | ≤ 100 nM | COCCOc1cc2nccc(Oc3c(F)cc(NC(=O)c4cnccc4OC)cc3F)c2nc1OC [Example 137, N-(3,5-difluoro-4-((6-methoxy-7-(2-methoxyethoxy)-1,5-naphthyridin-4-yl)oxy)phenyl)-4-methoxypyridine-3-carboxamide] | ≤ 100 nM | ≤ 100 nM
≤ 100 nM | ≤ 100 nM | COc1ccncc1C(=O)Nc1cc(F)c(Oc2ccnc3cc(OCCO)c(OC)nc23)c(F)c1 [Example 138, N-(3,5-difluoro-4-((7-(2-hydroxyethoxy)-6-methoxy-1,5-naphthyridin-4-yl)oxy)phenyl)-4-methoxypyridine-3-carboxamide] | ≤ 100 nM | ≤ 100 nM
≤ 100 nM | ≤ 100 nM | COCCOc1cnc2c(Oc3c(F)cc(NC(=O)c4cnccc4OC)cc3F)ccnc2c1 [Example 139, N-(3,5-difluoro-4-((7-(2-methoxyethoxy)-1,5-naphthyridin-4-yl)oxy)phenyl)-4-methoxypyridine-3-carboxamide] | ≤ 100 nM | ≤ 100 nM
≤ 100 nM | ≤ 100 nM | COCCOc1cnc2c(Oc3c(F)cc(NC(=O)c4ccccc4F)cc3F)ccnc2c1 [Example 140, N-(3,5-difluoro-4-((7-(2-methoxyethoxy)-1,5-naphthyridin-4-yl)oxy)phenyl)-2-fluorobenzamide] | ≤ 100 nM | ≤ 100 nM
≤ 100 nM | ≤ 100 nM | COc1cc2c(Oc3c(F)cc(NC(=O)c4c(OCC(F)F)ccnc4F)cc3F)ccnc2cc1OCCO [Example 141, N-(3,5-difluoro-4-((7-(2-hydroxyethoxy)-6-methoxyquinolin-4-yl)oxy)phenyl)-4-(2,2-difluoroethoxy)-2-fluoropyridine-3-carboxamide] | ≤ 100 nM | ≤ 100 nM
≤ 100 nM | ≤ 100 nM | COc1cc2nccc(Oc3c(F)cc(NC(=O)c4c(OCC(F)F)ccnc4F)cc3F)c2cc1OCCO [Example 142, N-(3,5-difluoro-4-((6-(2-hydroxyethoxy)-7-methoxyquinolin-4-yl)oxy)phenyl)-4-(2,2-difluoroethoxy)-2-fluoropyridine-3-carboxamide] | ≤ 100 nM | ≤ 100 nM
≤ 100 nM | ≤ 100 nM | COc1cc2nccc(Oc3c(F)cc(NC(=O)c4cnccc4OCC(F)F)cc3F)c2cc1OCCO [Example 143, N-(3,5-difluoro-4-((6-(2-hydroxyethoxy)-7-methoxyquinolin-4-yl)oxy)phenyl)-4-(2,2-difluoroethoxy)pyridine-3-carboxamide] | ≤ 100 nM | ≤ 100 nM
